From publication PMC3261944, “The in Vitro Estrogenic Activities of Polyfluorinated Iodine Alkanes” (Environmental Health Perspectives, 2011)
Entries after “also recorded” stand apart in the source; their conditions may differ.

What was measured:
MCF-7BUS cells = assay: E-screen assay (MCF-7BUS cell proliferation, WST-1); type: cell-based, Human; conditions: for E-screen Maximum induction (%): percentage of the maximum proliferation effect of tested compound to that of E2, 6 days exposure; for Proliferation / estrogenic effect in the E-screen assay (in words): within the tested concentration ranges
Procedure: (§1) Cell culture. Human MCF-7BUS breast adenocarcinoma cells and MVLN cells were cultured in 100-mm culture dishes in a humidified atmosphere of 5% CO2 at 37°C. Cells were maintained in Dulbecco’s modified Eagle’s medium (DMEM)/F-12 (Hyclone, Logan, UT, USA) containing 10% fetal bovine serum, 100 U/mL streptomycin-penicillin, 2 mM L-glutamine, and 1% insulin-transferrin-selenium supplement (all from Gibco, Grand Island, NY, USA).
E-screen assay. MCF-7BUS cells were kindly provided by A.M. Soto and C. Sonnenschein (Tufts University School of Medicine, Boston, MA, USA). In response to ERα agonists, the mitotic effect leads to the proliferation of MCF-7BUS cells. […] Cells were trypsinized and plated into the interior 60 wells of 96-well plates at the density of 3,000 cells/well. Before each experiment, cells were starved in steroid-free (SF) medium for 48 hr to minimize the basal hormonal activity during assays. SF medium consisted of phenol red–free DMEM/F-12 (Hyclone) supplemented with 5% dextran-charcoal-treated fetal bovine serum (Hyclone), 100 U/mL streptomycin-penicillin, and 2 mM L-glutamine. […] We used a WST-1 proliferation kit (Roche Diagnostics, Mannheim, Germany) to assess proliferation after 6 days of exposure according to the kit instructions. The WST-1 assay is based on the enzymatic cleavage of the tetrazolium salt WST-1 to formazan by cellular mitochondrial dehydrogenases present in viable cells. The absorbance of the WST-1 solution was detected by a microplate reader (Varioskan Flash, Thermo Fisher Scientific, Waltham, MA, USA) at 450 nm, with the reference wave length at 690 nm. The cell proliferation effect was calculated from the solvent control (0.1% ethanol)-corrected absorbance and expressed as the percentage of maximal absorbance of the positive control. Three replicates were used in each experiment.
(§2) The concentration–response analyses were performed with four-parameter logistic curve regression analysis according to the following formula:
(§3) y = minimum + (maximum – minimum) ÷ [1 + (x/EC50)^Hill slope], [1]
(§4) where y is the response value, x is the log concentration of the test compound, and EC50 is the concentration that induces half of the maximum proliferation effect or luciferase activity.
EC50 values were calculated from this nonlinear regression model. EC20 were calculated as […]

ER = target: T1, ER (Homo sapiens, UniProt P03372); assay: MVLN assay (estrogen-responsive luciferase reporter transactivation); type: cell-based; conditions: for MVLN assay Maximum induction (%): percentage of the maximum induction (luciferase) of tested compound to that of E2, 2 days exposure; for Luciferase induction / estrogenic effect in the MVLN assay (in words): within the tested concentration ranges
T1 construct: This cell line was stably transfected with the luciferase reporter gene and estrogen-responsive element derived from the Xenopus vitellogenin A2 gene; endogenous in cells; host or cells: MVLN cells (provided by J.P. Giesy)
T1 sequence (P03372 1-595): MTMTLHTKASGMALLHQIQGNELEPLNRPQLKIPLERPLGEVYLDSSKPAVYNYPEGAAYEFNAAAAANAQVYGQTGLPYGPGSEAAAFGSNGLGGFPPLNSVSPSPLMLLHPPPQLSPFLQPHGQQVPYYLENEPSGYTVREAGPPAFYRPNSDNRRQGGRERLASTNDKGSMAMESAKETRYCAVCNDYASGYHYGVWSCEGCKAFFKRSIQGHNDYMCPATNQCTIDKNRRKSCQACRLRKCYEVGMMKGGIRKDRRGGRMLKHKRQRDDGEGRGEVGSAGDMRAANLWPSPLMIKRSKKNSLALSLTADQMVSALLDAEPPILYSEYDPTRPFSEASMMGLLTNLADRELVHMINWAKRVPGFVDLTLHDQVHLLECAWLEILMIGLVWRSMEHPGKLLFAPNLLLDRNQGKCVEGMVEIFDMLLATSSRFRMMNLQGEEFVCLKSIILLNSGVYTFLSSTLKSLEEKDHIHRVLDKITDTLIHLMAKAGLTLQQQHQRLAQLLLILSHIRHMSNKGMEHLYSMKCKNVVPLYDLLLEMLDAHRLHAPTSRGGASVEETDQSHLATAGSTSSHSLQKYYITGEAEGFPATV
Procedure: as §1
MVLN assay. The MVLN cell line was kindly provided by J.P. Giesy (Michigan State University, East Lansing, MI, USA). This cell line was stably transfected with the luciferase reporter gene and estrogen-responsive element derived from the Xenopus vitellogenin A2 gene. […] Cells were seeded in the interior 60 wells of a 96-well ViewPlate (Packard Instrument Company, Boston, MA, USA) at a density of 7 × 10^4 cells/well, starved in SF medium for 48 hr, and exposed to test compounds for 2 days. […] Luciferase activity was measured with the LucLite kit (Packard Instruments) according to the manufacturer’s protocol. We measured luminescence by microplate reader (Varioskan Flash) and integrated the luminescence signal for 10 sec. Total protein content was measured by the Bradford assay (Tiangen, Beijing, China) to normalize luminescent units. The results are given as relative luminescent unit per microgram protein. The maximal induction of positive control (corrected for solvent control, 0.1–0.2% ethanol) was set as 100%, and the responses of other chemicals were converted to a percentage of the maximum level. Three replicates were used in each experiment. The cytotoxicity of tested chemicals was examined by WST-1 kit in parallel and routinely observed under microscope to identify the exposure concentration range.
as §2, §3, §4
EC50 values were calculated from this nonlinear regression model. EC20 were calculated as
ECx = [x/(100 – x)]^(1/Hill slope) × EC50, [2]

TFF1 (pS2) = assay: Expression of estrogen-responsive gene TFF1 (quantitative RT-PCR); type: cell-based, Human; conditions: MCF-7 cells, 48 hr, vs 0.1% ethanol; 50 μM PFBI, PFHxI, PFOI, PFBDI, PFOA, PFOC, PFOB, 1-iodohexane, 4:2 FTI, 6:2 FTI; 40 μM PFDI, PFDoI, PFODI, 8:2 FTI, 10:2 FTI; 20 μM PFHxDI; 100 pM E2
Procedure: (§5) RNA isolation and reverse transcription polymerase chain reaction (RT-PCR). MCF-7BUS cells were seeded in six-well plates at the density of 1.0 × 10^6 cells per well, starved in SF medium for 48 hr, and exposed to test compounds for 48 hr. First, cells were rinsed twice with cold phosphate-buffered saline, and total RNA was isolated using Trizol reagent (Invitrogen Inc., Carlsbad, CA, USA) following the manufacturer’s protocol. The 260 nm and 280 nm absorbance reading of total RNA was performed using a Nanodrop spectrophotometer (Thermo Scientific, Waltham, MA, USA). The concentration of RNA was quantified by the reading at 260 nm.
(§6) We used a two-step quantitative RT-PCR to quantify gene expression. Total RNA was converted to cDNA using M-MLV (Moloney murine leukemia virus) reverse transcriptase (Promega, Madison, WI, USA) with oligo dT(15), following the manufacturer’s instructions. The final cDNA solution was diluted five times with DNase/RNase-free water (Gibco). Quantitative PCR was performed with a Stratagene MX3005 thermal cycler (Stratagene, La Jolla, CA, USA). PCR reaction mixtures (25 μL) contained 12.5 μL GoTaq Green Master Mix (Promega), 2 μL diluted cDNA, and 0.2 μM sense/antisense primers. The thermal cycle was 5 min at 95°C, followed by 45 cycles of 15 sec at 95°C, 30 sec at 55°C, and 30 sec at 72°C. The primer sequences of early growth response protein 3 (EGR3) were derived from [Terasaka et al. (2004)]. We designed the primers of internal gene β-actin and trefoil factor 1 (TFF1; pS2) with Primer Premier 5 software (Premier Biosoft International, Palo Alto, CA, USA). The primer sequences were as follows: for β-actin (NM_001101), 5´-CACTCT[…]TCCTTCC-3´ (forward) and 5´-[…][…]-3´ (reverse); for EGR3 (NM_004430), 5´-CCATGATTC[…]-3´ (forward) and 5´-GTGGATCTGCTTGTCTTTGAATG-3´ (reverse); and for TFF1 (NM_003225), 5´-AGAAGCG […]-3´ (forward) and 5´-[…][…]-3´ (reverse). The quantification of target gene expression was based on a comparative cycle threshold (Ct) value. We normalized the expression level of each target gene to its reference gene β-actin. The fold change of the target genes was analyzed by the 2^−ΔΔCt method ([Livak and Schmittgen 2001]). We used melting curve analysis and agarose gel electrophoresis to verify the correct PCR products.

EGR3 = assay: Expression of estrogen-responsive gene EGR3 (quantitative RT-PCR); type: cell-based, Human; conditions: MCF-7 cells, 48 hr, vs 0.1% ethanol; 50 μM PFBI, PFHxI, PFOI, PFBDI, PFOA, PFOC, PFOB, 1-iodohexane, 4:2 FTI, 6:2 FTI; 40 μM PFDI, PFDoI, PFODI, 8:2 FTI, 10:2 FTI; 20 μM PFHxDI; 100 pM E2
Procedure: as §5, §6

vitellogenin [1] = tested on: vitellogenin; parameters: method as in Liu et al. (2007); conditions: primary cultured tilapia hepatocytes; ref Liu et al. (2007); cited from earlier work
vitellogenin [2] = tested on: vitellogenin; parameters: method as in Ishibashi et al. 2008; conditions: male medaka fish; ref Ishibashi et al. 2008; cited from earlier work
[3] = tested on: gap junction intercellular communication; parameters: method as in Hu et al. 2002; Upham et al. 1998; conditions: ref Hu et al. 2002; Upham et al. 1998; cited from earlier work

Row | Compound | E-screen Maximum induction (%) (MCF-7BUS cells) | Proliferation / estrogenic effect in the E-screen assay (in words) (MCF-7BUS cells) | MVLN assay Maximum induction (%) (ER) | Luciferase induction / estrogenic effect in the MVLN assay (in words) (ER) | TFF1 mRNA expression, fold up-regulation (TFF1 (pS2)) | EGR3 mRNA expression, fold up-regulation (EGR3) | Vitellogenin expression (vitellogenin [1]) | Vitellogenin induction (vitellogenin [2]) | Inhibition of gap junction intercellular communication [3]
1 | CCCCCCI [1-Iodohexane, reference compound] | NDd (The maximum relative proliferation effect was < 7%) | negative results | NDe (The maximum relative luciferase activity was < 5%) | negative results | did not affect the expression | did not affect the expression | – | – | –
2 | FC(F)(F)C(F)(F)C(F)(F)C(F)(F)I [PFBI, 1-iodoperfluorobutane] | NDd (The maximum relative proliferation effect was < 7%) | did not show proliferation effects | – | – | did not affect the expression | did not affect the expression | – | – | –
3 | FC(F)(F)C(F)(F)C(F)(F)C(F)(F)C(F)(F)C(F)(F)C(F)(F)C(F)(F)C(F)(F)C(F)(F)I [PFDI, 1-iodoperfluorodecane] | NDd (The maximum relative proliferation effect was < 7%) | did not show proliferation effects | – | – | did not affect the expression | did not affect the expression | – | – | –
4 | FC(F)(F)C(F)(F)C(F)(F)C(F)(F)C(F)(F)C(F)(F)C(F)(F)C(F)(F)C(F)(F)C(F)(F)C(F)(F)C(F)(F)I [PFDoI, 1-iodoperfluorododecane] | NDd (The maximum relative proliferation effect was < 7%) | did not show proliferation effects | – | – | did not affect the expression | did not affect the expression | – | – | –
5 | O=C(O)C(F)(F)C(F)(F)C(F)(F)C(F)(F)C(F)(F)C(F)(F)C(F)(F)F [PFOA, perfluorooctanoic acid, reference compound] | NDd (The maximum relative proliferation effect was < 7%) | negative results; also recorded: did not show proliferation effects | – | – | – | – | induced | did not | –
6 | FC(F)(F)C(F)(F)C(F)(F)C(F)(F)C(F)(F)C(F)(F)C(F)(F)C(F)(F)Br [PFOB, 1-bromoperfluorooctane, reference compound] | NDd (The maximum relative proliferation effect was < 7%) | negative results | NDe (The maximum relative luciferase activity was < 5%) | negative results | did not affect the expression | did not affect the expression | – | – | –
7 | FC(F)C(F)(F)C(F)(F)C(F)(F)C(F)(F)C(F)(F)C(F)(F)C(F)(F)F [PFOC, 1H-perfluorooctane, reference compound] | NDd (The maximum relative proliferation effect was < 7%) | negative results | NDe (The maximum relative luciferase activity was < 5%) | negative results | did not affect the expression | did not affect the expression | – | – | –
8 | O=S(=O)(O)C(F)(F)C(F)(F)C(F)(F)C(F)(F)C(F)(F)C(F)(F)C(F)(F)C(F)(F)F [PFOS, perfluorooctane sulfonate] | – | – | – | – | – | – | induced | did not | significantly inhibits
9 | O=S(=O)(O)C(F)(F)C(F)(F)C(F)(F)C(F)(F)F [perfluorobutanesulfonate] | – | – | – | – | – | – | – | – | did not show effects
10 | O=S(=O)(O)C(F)(F)C(F)(F)C(F)(F)C(F)(F)C(F)(F)C(F)(F)F [perfluorohexanesulfonate] | – | – | – | – | – | – | – | – | did not show effects
